Data reported in patent US20070087977A1, “METHODS AND COMPOSITIONS FOR TREATING PAIN” (priority 2004, published 2007).
Where two headings read alike, the source gives them in different places.

Experiments:
[1] = system: mdr1a (P-gP) knockout mouse; conditions: same doses, cited from earlier work
[2] = system: adult subjects with chronic pain; assay: Human study of the effects of oral quercetin (Q) and analgesics on sedation, concentration and pain; format: in vivo
Description: An empiric trial on the effects of oral quercetin (Q) on sedation, concentration, and pain was conducted. Inclusion criteria included ongoing pain of at least 4/10 on the Likert scale, poor tolerance of current analgesic regimen (complaints of sedation, dizziness, inability to focus), and willingness to complete daily diaries.
Approximately 16 adult subjects with chronic pain were screened and 9 subjects were admitted to the trial. Their pain disorders included peripheral neuropathy (2), facial pain (2), cervical radiculopathy (2), lumbar spine disease (3). Their pre-existing medications included short acting opioids (Vicodin TID, Tramadol 50 mg Q4-6), high dose, long acting opioids (OxyContin 240 mg, Methadone 400 mg), Gabapentin (900 mg and 2700 mg), Ativan, Flexeril, and Soma 350 mg. Seven of the subjects were using at least two analgesic medications. Two subjects were using no current medications because of prior histories of sedation and dizziness during opioid trials.
Q (Sigma) 500 mg per gel capsule was compounded and supplied to all subjects by overnight mail. Subjects were instructed to complete daily diaries for 7 days and continue their baseline medications and regular activities. On approximately the 7th day, they were asked to begin twice daily dosing of 2 Q (1000 mg) capsules (total daily dose of Q, 2000 mg). Diaries were completed for 7 days. Individual diaries included rating sleep interference, focus, pain now, and worst pain over the prior 24 hours. Subjects were instructed that concomitant pain medications should not be altered without speaking with the investigator. Subjects were advised that they would be contacted by telephone every day or every other day to assess progress in the trial and any side effects associated with the addition of Q. At the end of the trial, patients were interviewed. They were asked to rate their satisfaction with the study medication (−2-+2) and its ability to modulate the CNS effects of their pain medications.

[3] = system: Healthy subjects undergoing third molar removal; assay: Quercetin ameliorates CNS effects of oxycodone in an acute pain model (third molar removal); format: in vivo, human
Description: Opioids frequently produce adverse CNS side effects in ambulatory settings, providing a rationale for improving opioid analgesia by minimizing adverse effects. […] Healthy subjects (N=65) undergoing third molar removal are randomly allocated to receive 500 mg oral quercetin or matching placebo at 1 hr prior to surgery. […] Total Nausea and Vomiting Score (TNVS) is calculated for the time from dosing through 24 hr.

SMILES | sensitivity to fetal cleft palate ([1]; heterozygous (+/-) mice) | sensitivity to fetal cleft palate ([1]; homozygous (+/+) mice) | sleep rating (1 perfect sleep, 10 worst) ([2]; after taking Q, all patients, FIG. 5) | concentration rating (1 perfect concentration, 10 worst) ([2]; after taking Q, all patients, FIG. 6) | worst pain in the last 24 hrs (NPRS, 1 no pain, 10 worst) ([2]; after taking Q, all patients, FIG. 7) | pain at the time the patients were called (pain now) ([2]; after taking Q, all patients, FIG. 8) | global assessment (scale of -2 to 2) ([2]; all patients on opiate or MSD and modulator (Q), FIG. 15) | CNS activation noted ([2]; opioid users taking Q) | central withdrawal noted (number of opioid users) ([2]; opioid users taking Q) | number of patients reporting 2 in global assessment ([2]; scale of -2 to 2, FIG. 15) | number of patients reporting -2 in global assessment ([2]; scale of -2 to 2, FIG. 15) | pain on the scale from 1-10 (worst pain in last 24 hrs, pain at time of call) ([2]; two patients not on baseline meds, poor tolerance of systemic medications, FIGS. 13 and 14) | median time to request for a second analgesic ([3]; 500 mg oral quercetin + 10 mg oral oxycodone) [min] | mean pain intensity ([3]; 500 mg oral quercetin + 10 mg oral oxycodone, compared with placebo group) | oxycodone plasma concentrations, quercetin vs placebo group ([3]; prior to surgery, at 1 hr, at 4 hr)
CC[C@H](C)[C@H]1O[C@]2(C=C[C@@H]1C)C[C@@H]1C[C@@H](C/C=C(\C)[C@@H](O[C@H]3C[C@H](OC)[C@@H](O[C@H]4C[C@H](OC)[C@@H](O)[C@H](C)O4)[C@H](C)O3)[C@@H](C)/C=C/C=C3\CO[C@@H]4[C@H](O)C(C)=C[C@@H](C(=O)O1)[C@]34O)O2 [avermectin] | less sensitive | insensitive |  |  |  |  |  |  |  |  |  |  |  |  | 
O=c1c(O)c(-c2ccc(O)c(O)c2)oc2cc(O)cc(O)c12 [quercetin] |  |  | overall improvement | overall improvement | overall improvement | overall improvement | overall improvement in their condition | all the 4 opioid users | 3 | three | none | brought the pain down | 120 | consistently lower | do not differ
